We go through ten compounds from PubChem BioAssay (NCI).

“And” between values parts separate entries of the source, which are not always exact repeats. Equal entries are not always repeated.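 Dose response: 5 concentrations. Exposure: 48 h. Format: 96-well plates. Endpoint: linear interpolation; highest concentration if not reached. Abbreviation: GI50, concentration required for 50% inhibition of growth. TGI denotes the concentration required for complete inhibition of growth.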 Where only a bound is given, the exact number is not on record here.

Some test systems named below: SF-539 CNS; RXF 393 renal; SF-295 CNS; TK-10 renal; SF-268 CNS; HOP-62 NSCLC; EKVX NSCLC; NCI-H23 lung; HT29 colon; BT-549 breast.
Holding throughout (test): growth of human tumour cells (NCI), 48 h

`C[CH2][Ge]1([CH2]C)[CH2]CC2(CCN(CCCN(C)C)C2)C[CH2]1`: the GI50 is 1.78 µM and 1.71 µM with SF-539 CNS; 1.71 µM and 1.21 µM in the test with RXF 393 renal; 1.7 µM and 2.42 µM in the test with SF-295 CNS; 1.72 µM and 1.87 µM in the test on TK-10 renal; 1.81 µM with SF-268 CNS; 0.949 µM and 4.87 µM in the test on HOP-62 NSCLC. The GI50 in the test with EKVX NSCLC was 1.7 µM and 2.33 µM; with NCI-H23 lung, 2.47 µM and 4.11 µM; in the test on HT29 colon, 0.4 µM and 2.24 µM; in the test with BT-549 breast it was 1.69 µM. Besides, the TGI is 3.54 µM and 3.34 µM in the test with SF-539 CNS; 4.29 µM and 3.4 µM in the test with RXF 393 renal; 3.17 µM and 3.67 µM in the test on SF-295 CNS; 3.18 µM and 3.38 µM in the test with TK-10 renal; 3.96 µM in the test with SF-268 CNS; 1.89 µM and 9.25 µM with HOP-62 NSCLC. Besides, the TGI in the test on EKVX NSCLC is 6.56 µM and 4.44 µM; with NCI-H23 lung, 8.19 µM and 8.41 µM; in the test on HT29 colon, 1.59 µM and 6.05 µM; with BT-549 breast, 3.23 µM.
`CCOC(=O)C(Cc1ccc(N(CCCl)CCCl)cc1)NC(=O)C(CC(C)C)NC(C)=O` (stereo unspecified): the GI50 is 1.09 µM with SF-539 CNS; 0.944 µM in the test on RXF 393 renal; 2.12 µM with SF-295 CNS; 1.98 µM in the test on TK-10 renal; 1.09 µM with SF-268 CNS; 1.32 µM in the test with HOP-62 NSCLC. Also, the GI50 in the test with EKVX NSCLC is 5.95 µM; in the test with NCI-H23 lung, 0.679 µM; with HT29 colon it was 1.28 µM; in the test with BT-549 breast, 7.07 µM. In addition, the TGI in the test on SF-539 CNS amounted to 7.01 µM; with RXF 393 renal, 2.3 µM; in the test on SF-295 CNS, 16.6 µM; with TK-10 renal, 4.87 µM; in the test on SF-268 CNS it was 5.51 µM; in the test on HOP-62 NSCLC, 3.8 µM. For the same compound, the TGI in the test with EKVX NSCLC was determined as 19.7 µM; with NCI-H23 lung, 2.68 µM; in the test with HT29 colon, 5.68 µM; with BT-549 breast, 21.7 µM.
For `COc1cc2c(cc1Nc1nc(Nc3ccsc3C(N)=O)c3cc[nH]c3n1)N(C(=O)CN(C)C)CCC2`, the GI50 with SF-539 CNS was 0.983 µM; with RXF 393 renal it was 0.612 µM; in the test with SF-295 CNS, 0.974 µM; in the test with TK-10 renal, 1.46 µM; with SF-268 CNS, 1.15 µM; with HOP-62 NSCLC, 0.917 µM. Besides, the GI50 was 0.551 µM in the test on EKVX NSCLC, 0.343 µM with NCI-H23 lung, < 0.0025 µM in the test with HT29 colon and 2.38 µM with BT-549 breast. The TGI with SF-539 CNS stood at 4.16 µM; with RXF 393 renal, 3.34 µM; in the test on SF-295 CNS, 4.8 µM; in the test on TK-10 renal, 6.27 µM; in the test on SF-268 CNS, 10.6 µM; with HOP-62 NSCLC, 6.84 µM. Further, the TGI in the test on EKVX NSCLC was found to be 6.35 µM; in the test with NCI-H23 lung, 8.55 µM; in the test on HT29 colon, 0.681 µM; with BT-549 breast it was 6.43 µM.
Regarding `C/C(=C1/N=C(c2ccccc2)OC1=O)c1cccs1`, the TGI with SF-539 CNS, with RXF 393 renal, in the test with SF-295 CNS, in the test with TK-10 renal, with SF-268 CNS and in the test with HOP-62 NSCLC was > 100 µM throughout. For the same compound, the TGI in the test with EKVX NSCLC, in the test with NCI-H23 lung, in the test with HT29 colon and with BT-549 breast was > 100 µM in each case.
For `COc1ccc(C(=O)CC(Cl)=C(Cl)Cl)cc1`, the GI50 in the test on SF-539 CNS is 37.2 µM; with RXF 393 renal, 32 µM; in the test with SF-295 CNS, 59.9 µM; with TK-10 renal, 23.9 µM; in the test with SF-268 CNS it was 38.2 µM; in the test with HOP-62 NSCLC it was 61.4 µM. The GI50 with EKVX NSCLC is 28.5 µM; in the test on NCI-H23 lung, 23.3 µM; with HT29 colon it was 22 µM; with BT-549 breast, 21.6 µM. Further, the TGI was > 100 µM in the test on SF-539 CNS; 97.1 µM in the test with RXF 393 renal; > 100 µM in the test on SF-295 CNS; 59.9 µM in the test on TK-10 renal; > 100 µM in the test on SF-268 CNS; > 100 µM in the test with HOP-62 NSCLC. The TGI with EKVX NSCLC was > 100 µM; in the test on NCI-H23 lung, 47.1 µM; in the test on HT29 colon it was 83.5 µM; with BT-549 breast, 57.3 µM.
With `COc1cc(C2C3=C(COC3=O)N(CCO)c3cc4c(cc32)CCC4)cc(OC)c1OC` (stereo unspecified), the GI50 with SF-539 CNS was 0.091 µM; with RXF 393 renal, 0.0446 µM; in the test on SF-295 CNS it was 0.0479 µM; in the test with TK-10 renal, 1.56 µM; with SF-268 CNS, 0.0934 µM; in the test with HOP-62 NSCLC, 0.121 µM. Further, the GI50 with EKVX NSCLC was 1.12 µM; in the test with NCI-H23 lung, 0.0903 µM; in the test with HT29 colon it was 0.0975 µM; in the test on BT-549 breast, 0.136 µM. For the same compound, the TGI in the test with SF-539 CNS is 0.663 µM; in the test on RXF 393 renal, 0.141 µM; with TK-10 renal it was > 32.5 µM; in the test with HOP-62 NSCLC, > 32.5 µM; in the test on EKVX NSCLC it was > 32.5 µM; with BT-549 breast, > 18.4 µM.
Turning to `CNCc1ccc(C)c(NC(=O)c2ccc(Nc3nc(-c4ccccc4)c4ccccc4n3)cc2)c1`, the GI50 in the test on SF-539 CNS is 1.82 µM; with RXF 393 renal it was 1.51 µM; in the test with SF-295 CNS, 1.84 µM; in the test with TK-10 renal, 2.12 µM; in the test on SF-268 CNS, 2.09 µM; in the test with HOP-62 NSCLC it was 1.96 µM. In addition, the GI50 is 1.64 µM with EKVX NSCLC, 1.87 µM with NCI-H23 lung, 1.86 µM with HT29 colon and 1.84 µM with BT-549 breast. The TGI in the test on SF-539 CNS was determined as 3.46 µM; in the test with RXF 393 renal it was 2.95 µM; in the test on SF-295 CNS it was 3.56 µM; with TK-10 renal it was 4.56 µM; with SF-268 CNS, 4.26 µM; with HOP-62 NSCLC it was 3.67 µM. Besides, the TGI in the test with EKVX NSCLC came out at 3.35 µM; in the test on NCI-H23 lung it was 3.71 µM; with HT29 colon it was 3.98 µM; in the test on BT-549 breast, 3.37 µM.
Consider `CCN(CC)CCC(CNc1c2ccc(Cl)cc2nc2ccc(OC)cc12)c1ccccc1` (stereo unspecified), for which the GI50 in the test with SF-539 CNS was 1.49 µM; in the test on RXF 393 renal, 1.23 µM; in the test with SF-295 CNS, 1.41 µM; in the test on TK-10 renal, 0.915 µM; in the test on SF-268 CNS, 1.33 µM; with HOP-62 NSCLC, 1.16 µM. Moreover, the GI50 in the test with EKVX NSCLC was 2.32 µM; in the test on NCI-H23 lung, 1.5 µM; with HT29 colon, 0.219 µM; in the test on BT-549 breast, 1.97 µM. The TGI stood at 3.16 µM in the test with SF-539 CNS; 2.68 µM in the test with RXF 393 renal; 3.02 µM in the test on SF-295 CNS; 2.8 µM in the test with TK-10 renal; 3.8 µM in the test with SF-268 CNS; 3.11 µM in the test on HOP-62 NSCLC. Moreover, the TGI with EKVX NSCLC came to 8.3 µM; in the test on NCI-H23 lung it was 3.55 µM; with HT29 colon, 0.664 µM; with BT-549 breast, 3.78 µM.
For `CC[N+]1(C)CCC(O)(/C=C/c2ccccc2)C(C(=O)/C=C/c2ccccc2)C1` (stereo unspecified), the TGI was 19 µM in the test on SF-539 CNS; 19.7 µM with RXF 393 renal; 33.4 µM in the test with SF-295 CNS; 18.3 µM in the test with TK-10 renal; 60.5 µM in the test with SF-268 CNS; 35.5 µM in the test on HOP-62 NSCLC. Besides, the TGI in the test with EKVX NSCLC amounted to 51.6 µM; with NCI-H23 lung, 35 µM; in the test on HT29 colon, 27.5 µM; in the test on BT-549 breast it was 34.5 µM.
As to `O=C1C2=C(Nc3cc([N+](=O)[O-])ccc3N2)OC1c1c[nH]c2ccc(COc3ccccc3)cc12` (stereo unspecified), the TGI in the test with SF-539 CNS, with RXF 393 renal, in the test with SF-295 CNS, in the test on TK-10 renal, in the test on SF-268 CNS and in the test on HOP-62 NSCLC was > 100 µM in each case. Moreover, the TGI in the test with EKVX NSCLC, in the test on NCI-H23 lung, in the test with HT29 colon and in the test on BT-549 breast was > 100 µM each time.
